Measurements published in patent publication US3952101A, “α-Amino methyl-5-hydroxy-2-pyridinemethanols” (SmithKline Corporation, priority 1975, dated 1976).
In brackets after ≈: the same amount, converted by molar mass.

Tests used:
[1] = system: guinea pig tracheal chain preparations; experiment: effect on spontaneous tone of guinea pig tracheal chain preparations (β-stimulant direct relaxant effect on airway smooth muscle); assay type: cell-based
Excerpt: (§1) Two in vitro test systems used for determining selective β-stimulant activity are: (1) effect on spontaneous tone of guinea pig tracheal chain preparations as a measure of β-stimulant (direct relaxant) effect on airway smooth muscle, and (2) effect on rate of spontaneously beating right atria of the guinea pig as a measure of β-stimulant effect on cardiac muscle.

guinea pig right atria = experiment: effect on rate of spontaneously beating right atria of the guinea pig (β-stimulant effect on cardiac muscle); assay type: cell-based; conditions: Cavia porcellus; in vitro, at a dose of 30.0 mcg/ml; read-out: increase in the rate of contraction of guinea pig right atria
Excerpt: as §1

SMILES	EC50 ([1]; Cavia porcellus, in vitro, spontaneous tone, read-out: ED50, relaxes the spontaneous tone of guinea pig tracheal ring preparation)	activation at 30 µg/mL (guinea pig right atria)	absolute separation ratio ([1]; tracheal versus right atria activity, similar in vitro preparations)
CC(C)(C)NCC(O)c1ccc(O)c(CS(C)(=O)=O)n1 (stereo not drawn) [α-(t-butylaminomethyl)-5-hydroxy-6-methanesulfonylmethyl-2-pyridinemethanol]	8.8 ng/mL (≈ 0.0291 µM)	13%	
CC(C)NCC(O)c1ccc(O)c(O)c1 (stereo not drawn) [d,1-isoproterenol, reference compound]			0.5
